The target of this experiment is human RIP1 kinase domain (2-375) (Homo sapiens (Human), UniProt Q13546). Nature of the experiment: RIP1 kinase inhibition biochemical assay (Transcreener ADP, fluorescence polarization). The following applies: apparent Ki (Kiapp, Morrison tight-binding fit); 50 nM enzyme, 50 uM ATP, 2 hours incubation. As for the experimental part: RIP1 Kinase Inhibition Assays (Biochemical Assay):
The compounds of the present invention were tested for their capacity to inhibit RIP IK activity as described below.
Enzyme assay: The ability of the receptor interacting protein kinase (RIPK1) to catalyze the hydrolysis of adenosine-5′-triphosphate (ATP) is monitored using the Transcreener ADP (adenosine-5′-diphosphate) assay (BellBrook Labs). Purified human RIP1 kinase domain (2-375) (50 nM) derived from a baculovirus-infected insect cell expression system is incubated with test compounds for 2 hours in 50 mM Hepes buffer (pH 7.5) containing 30 mM MgCl2, 1 mM dithiothreitol, 50 uM ATP, 0.002% Brij-35, and 0.5% dimethyl sulfoxide (DMSO). Reactions are quenched by the addition of IX Bell Brooks Stop buffer B (20 mM Hepes (ph7.5), 40 mM ethylenediaminetetraacetic acid and 0.02% Brij-35) containing an additional 12 mM EDTA and 55 ug/mL ADP2 antibody and 4 nM ADP-AlexaFluor® 633 tracer. The tracer bound to the antibody is displaced by the ADP generated during the RIP IK reaction, which causes a decrease in fluorescence polarization that is measured by laser excitation at 633 nm with a FP microplate reader M1000. Fractional activity was plotted against test article concentration. […]

The structures appear in SMILES notation. pKi: −log10 of the molar value.

Chain of human RIP1 kinase domain (2-375) (Q13546 2-375): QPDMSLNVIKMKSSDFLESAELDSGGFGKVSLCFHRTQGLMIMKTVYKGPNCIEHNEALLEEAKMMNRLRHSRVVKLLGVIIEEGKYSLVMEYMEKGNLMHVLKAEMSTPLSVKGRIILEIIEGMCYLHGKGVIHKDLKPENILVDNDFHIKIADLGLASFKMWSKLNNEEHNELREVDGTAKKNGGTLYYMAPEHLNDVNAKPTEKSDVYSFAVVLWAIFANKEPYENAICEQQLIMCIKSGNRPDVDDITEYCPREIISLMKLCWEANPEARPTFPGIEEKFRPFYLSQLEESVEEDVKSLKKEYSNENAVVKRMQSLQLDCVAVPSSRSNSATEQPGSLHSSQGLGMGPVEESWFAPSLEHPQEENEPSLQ

For the compound `O=C(c1nc2n(n1)CCC2c1ccccc1F)N1CC(F)(F)C1` (racemic) [Example 14, (3,3-difluoroazetidin-1-yl)-[7-(2-fluorophenyl)-6,7-dihydro-5H-pyrrolo[1,2-b][1,2,4]triazol-2-yl]methanone], the pKi is 6.63.
As for `O=C(c1nc2n(n1)[C@H](c1ccccc1)C[C@@H]2F)N1CC(F)(F)C1` (single isomer, unassigned) [Example 36], the pKi is 8.40.

(Values after patent US11607396B2, “Bicyclic amide compounds and methods of use thereof” (Genentech, Inc., priority 2016, dated 2023).)
